Test results published in patent publication US10689354B2, “Aminoazole derivative” (Teijin Pharma Limited, priority 2015, dated 2020).

Assays:
[1] = target: T1, androgen receptor (AR-LBD) (Rattus norvegicus, UniProt P15207); experiment: Evaluation of androgen receptor affinity (PolarScreen Androgen Receptor Competitor Assay Kit, Red; fluorescence polarization); conditions: 22° C. for 5 hours, relative to binding rate of 1 μM DHT, read-out: AR affinity (pEC50) (converted)
T1 construct: 5 μL of 2×AR-LBD/Fluoromone AL Red Complex contained in the kit; purchased Invitrogen
T1 sequence (P15207 651-882 limits assumed): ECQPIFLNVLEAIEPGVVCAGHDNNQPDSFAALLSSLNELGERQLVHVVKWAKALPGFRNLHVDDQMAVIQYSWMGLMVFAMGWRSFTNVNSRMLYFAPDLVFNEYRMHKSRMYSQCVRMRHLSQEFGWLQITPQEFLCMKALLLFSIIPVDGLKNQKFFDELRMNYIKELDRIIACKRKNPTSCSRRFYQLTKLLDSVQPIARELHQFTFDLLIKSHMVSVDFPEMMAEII
Summary of the method: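 Duplicate wells; compound plus AR-LBD tracer complex incubated 22° C for 5 h, then FP measured. Effect compared with 1 μM DHT; 50%-effect concentration expressed as pEC50.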

human androgen receptor = target: T2, human androgen receptor (Homo sapiens, UniProt P10275); experiment: Reporter assay of an androgen receptor responsive sequence (luciferase, transiently transfected HEK293 cells); format: cell-based; conditions: 24 hours incubation, relative to activity of 100 nM DHT, read-out: AR transcriptive activity (pEC50) (converted)
T2 construct: expressed in transfected cells; host or cells: HEK293
T2 sequence (P10275 1-920): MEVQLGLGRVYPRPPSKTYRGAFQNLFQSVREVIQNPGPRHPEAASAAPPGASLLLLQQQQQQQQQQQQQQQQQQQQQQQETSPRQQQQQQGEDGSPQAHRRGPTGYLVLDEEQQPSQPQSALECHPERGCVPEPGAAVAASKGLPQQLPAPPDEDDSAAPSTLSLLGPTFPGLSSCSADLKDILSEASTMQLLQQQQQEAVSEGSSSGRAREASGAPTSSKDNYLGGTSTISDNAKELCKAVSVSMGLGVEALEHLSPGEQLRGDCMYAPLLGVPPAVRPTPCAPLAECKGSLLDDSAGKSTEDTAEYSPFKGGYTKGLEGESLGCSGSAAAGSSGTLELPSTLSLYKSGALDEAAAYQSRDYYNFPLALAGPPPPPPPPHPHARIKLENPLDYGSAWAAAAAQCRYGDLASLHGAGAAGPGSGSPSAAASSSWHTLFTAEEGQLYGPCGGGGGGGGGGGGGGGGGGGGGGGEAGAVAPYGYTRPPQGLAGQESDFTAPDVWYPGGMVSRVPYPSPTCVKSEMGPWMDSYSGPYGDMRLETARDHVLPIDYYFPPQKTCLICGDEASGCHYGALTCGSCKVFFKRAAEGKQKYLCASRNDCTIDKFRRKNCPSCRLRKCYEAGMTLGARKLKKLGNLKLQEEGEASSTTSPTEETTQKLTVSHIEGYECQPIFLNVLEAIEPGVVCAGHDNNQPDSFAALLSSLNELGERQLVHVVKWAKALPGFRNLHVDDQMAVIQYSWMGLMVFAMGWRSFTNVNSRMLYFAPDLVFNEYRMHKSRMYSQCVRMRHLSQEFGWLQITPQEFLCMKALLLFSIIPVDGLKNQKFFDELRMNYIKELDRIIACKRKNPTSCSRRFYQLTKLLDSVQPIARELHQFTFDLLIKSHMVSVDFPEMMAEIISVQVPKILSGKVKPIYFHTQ
Summary of the method: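 Agonism scored as pEC50, fitted by 4-parameter curve against the response to 100 nM DHT, from dual-luciferase readout after 24 h compound treatment. Cells were HEK293 co-transfected (3 h) with human AR expression vector, androgen-responsive firefly reporter and Renilla control, in charcoal-stripped serum.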

Row | Compound | EC50 [1] [µM] | EC50 (human androgen receptor) [µM]
1 | Cc1sc(N(Cc2ccnc(C(F)(F)F)c2)c2ccc(C#N)cc2)nc1C(=O)NS(C)(=O)=O [Compound 538, 2-[4-cyano-N-[[2-(trifluoromethyl)-4-pyridyl]methyl]anilino]-5-methyl-N-methylsulfonyl-thiazole-4-carboxamide] | 0.398 | 3.98
2 | COCCCCS(=O)(=O)NC(=O)c1nc(N(Cc2ccc(OC(F)(F)F)cc2)c2ccc(C#N)cc2)sc1C [Compound 539, 2-[4-cyano-N-[[4-(trifluoromethoxy)phenyl]methyl]anilino]-N-(4-methoxybutylsulfonyl)-5-methyl-thiazole-4-carboxamide] | 0.0158 | 0.158
3 | COCCOCCCS(=O)(=O)NC(=O)c1nc(N(Cc2ccc(OC(F)(F)F)cc2)c2ccc(C#N)cc2)sc1C [Compound 540, 2-[4-cyano-N-[[4-(trifluoromethoxy)phenyl]methyl]anilino]-N-[3-(2-methoxyethoxy)propylsulfonyl]-5-methyl-thiazole-4-carboxamide] | 0.316 | > 10
4 | Cc1oc(N(CCc2ccc(Cl)cc2)Cc2cccc(OC(F)(F)F)c2)nc1C(=O)NS(C)(=O)=O [Compound 542, 2-[2-(4-chlorophenyl)ethyl-[[3-(trifluoromethoxy)phenyl]methyl]amino]-5-methyl-N-methylsulfonyl-oxazole-4-carboxamide] | 0.0794 | 0.501
5 | Cc1oc(N(CCc2ccc(Cl)cc2)Cc2ccccc2OC(F)F)nc1C(=O)NS(C)(=O)=O [Compound 543, 2-[2-(4-chlorophenyl)ethyl-[[2-(difluoromethoxy)phenyl]methyl]amino]-5-methyl-N-methylsulfonyl-oxazole-4-carboxamide] | 0.0501 | 1.26
6 | Cc1oc(N(CCc2ccc(Cl)cc2)Cc2ccc(OC(F)(F)F)cc2)nc1C(=O)NS(C)(=O)=O [Compound 544, 2-[2-(4-chlorophenyl)ethyl-[[4-(trifluoromethoxy)phenyl]methyl]amino]-5-methyl-N-methylsulfonyl-oxazole-4-carboxamide] | 0.0398 | 0.316
7 | Cc1oc(N(CCc2ccc(Cl)cc2)Cc2ccc3ncsc3c2)nc1C(=O)NS(C)(=O)=O [Compound 545, 2-[1,3-benzothiazol-6-ylmethyl-[2-(4-chlorophenyl)ethyl]amino]-5-methyl-N-methylsulfonyl-oxazole-4-carboxamide] | 0.0398 | 0.158
8 | Cc1nc(CN(CCc2ccc(Cl)cc2)c2nc(C(=O)NS(C)(=O)=O)c(C)o2)cs1 [Compound 546, 2-[2-(4-chlorophenyl)ethyl-[(2-methylthiazol-4-yl)methyl]amino]-5-methyl-N-methylsulfonyl-oxazole-4-carboxamide] | 0.2 | 1.58
9 | Cc1oc(N(CCc2ccc(C#N)cc2)Cc2ccc(Cl)cc2)nc1C(=O)NS(C)(=O)=O [Compound 548, 2-[(4-chlorophenyl)methyl-[2-(4-cyanophenyl)ethyl]amino]-5-methyl-N-methylsulfonyl-oxazole-4-carboxamide] | 0.0251 | 0.126
10 | Cc1oc(N(CCc2ccc(Cl)cc2)Cc2ccc(Cl)cn2)nc1C(=O)NS(C)(=O)=O [Compound 549, 2-[2-(4-chlorophenyl)ethyl-[(5-chloro-2-pyridyl)methyl]amino]-5-methyl-N-methylsulfonyl-oxazole-4-carboxamide] | 0.0631 | 1.26
11 | Cc1oc(N(CCc2ccc(Cl)cc2)Cc2ccc(F)cc2)nc1C(=O)NS(C)(=O)=O [Compound 550, 2-[2-(4-chlorophenyl)ethyl-[(4-fluorophenyl)methyl]amino]-5-methyl-N-methylsulfonyl-oxazole-4-carboxamide] | 0.0631 | 0.251
12 | Cc1oc(N(CCc2ccc(Cl)cc2)Cc2ccc(C(F)(F)F)nc2)nc1C(=O)NS(C)(=O)=O [Compound 551, 2-[2-(4-chlorophenyl)ethyl-[[6-(trifluoromethyl)-3-pyridyl]methyl]amino]-5-methyl-N-methylsulfonyl-oxazole-4-carboxamide] | 0.0398 | 0.501
13 | Cc1oc(N(CCc2ccc(C#N)cc2)Cc2ccc(F)cc2)nc1C(=O)NS(C)(=O)=O [Compound 552, 2-[2-(4-cyanophenyl)ethyl-[(4-fluorophenyl)methyl]amino]-5-methyl-N-methylsulfonyl-oxazole-4-carboxamide] | 0.0794 | 0.501
14 | Cc1oc(N(CCc2ccc(C#N)cc2)Cc2ccc(OC(F)F)cc2)nc1C(=O)NS(C)(=O)=O [Compound 553, 2-[2-(4-cyanophenyl)ethyl-[[4-(difluoromethoxy)phenyl]methyl]amino]-5-methyl-N-methylsulfonyl-oxazole-4-carboxamide] | 0.0316 | 0.316
15 | Cc1oc(N(CCc2ccc(C#N)cc2)Cc2ccc(F)cc2Cl)nc1C(=O)NS(C)(=O)=O [Compound 554, 2-[(2-chloro-4-fluoro-phenyl)methyl-[2-(4-cyanophenyl)ethyl]amino]-5-methyl-N-methylsulfonyl-oxazole-4-carboxamide] | 0.0398 | 0.794
16 | Cc1oc(N(CCc2ccc(C#N)cc2)Cc2ccc(C(F)(F)F)nc2)nc1C(=O)NS(C)(=O)=O [Compound 555, 2-[2-(4-cyanophenyl)ethyl-[[6-(trifluoromethyl)-3-pyridyl]methyl]amino]-5-methyl-N-methylsulfonyl-oxazole-4-carboxamide] | 0.316 | 5.01
17 | COCCCS(=O)(=O)NC(=O)c1nc(N(CCc2ccc(C#N)cc2)Cc2ccc(F)cc2)oc1C [Compound 556, 2-[2-(4-cyanophenyl)ethyl-[(4-fluorophenyl)methyl]amino]-N-(3-methoxypropylsulfonyl)-5-methyl-oxazole-4-carboxamide] | 0.1 | 1.26
18 | COCCCS(=O)(=O)NC(=O)c1nc(N(CCc2ccc(C#N)cc2)Cc2ccc(OC(F)F)cc2)oc1C [Compound 557, 2-[2-(4-cyanophenyl)ethyl-[[4-(difluoromethoxy)phenyl]methyl]amino]-N-(3-methoxypropylsulfonyl)-5-methyl-oxazole-4-carboxamide] | 0.0398 | 0.631
19 | COCCCS(=O)(=O)NC(=O)c1nc(N(CCc2ccc(C#N)cc2)Cc2ccc(F)cc2Cl)oc1C [Compound 558, 2-[(2-chloro-4-fluoro-phenyl)methyl-[2-(4-cyanophenyl)ethyl]amino]-N-(3-methoxypropylsulfonyl)-5-methyl-oxazole-4-carboxamide] | 0.0631 | > 10
20 | COCCCS(=O)(=O)NC(=O)c1nc(N(CCc2ccc(C#N)cc2)Cc2ccc(C(F)(F)F)nc2)oc1C [Compound 559, 2-[2-(4-cyanophenyl)ethyl-[[6-(trifluoromethyl)-3-pyridyl]methyl]amino]-N-(3-methoxypropylsulfonyl)-5-methyl-oxazole-4-carboxamide] | 0.316 | 7.94
21 | Cc1oc(N(CCc2ccc(OC(F)(F)F)cc2)Cc2nc(C3CC3)no2)nc1C(=O)NS(C)(=O)=O [Compound 560, 2-[(3-cyclopropyl-1,2,4-oxadiazol-5-yl)methyl-[2-[4-(trifluoromethoxy)phenyl]ethyl]amino]-5-methyl-N-methylsulfonyl-oxazole-4-carboxamide] | 0.0501 | 1
22 | Cc1oc(N(CCc2ccc(OC(F)(F)F)cc2)Cc2ccc(Cl)cn2)nc1C(=O)NS(C)(=O)=O [Compound 561, 2-[(5-chloro-2-pyridyl)methyl-[2-[4-(trifluoromethoxy)phenyl]ethyl]amino]-5-methyl-N-methylsulfonyl-oxazole-4-carboxamide] | 0.0398 | 3.16
